Assays:
MDA-MB-435P (breast) = test: alamarBlue viability assay, MDA-MB-435P; format: cell-based; conditions: 72 hours
Experimental: (§1) Additionally, the following cancer cell lines were used:
(§2) Cells were grown in a humidified incubator at 37° C. in 5% CO2.
(§3) Cells were plated in 96-well plates at a density of 6000 cells/well in 100 μl medium 24 h before addition of drugs. They were then added in concentrations from 100 μM to 0.45 nM (each concentration in triplicate). To do so, a drugs-dilution plate at twice the screening concentrations was prepared. 72 hours later, alamarBlue (Biosource, Invitrogen) viability assay was performed following manufacturer's protocol. In brief, alamarBlue diluted in media was added to cells to have a 5% solution. Cells were incubated at 37° C., 3 hours and at room temperature, 30 min. Cells with no drug and, cells with no drug and lysed with triton X-100 were used as controls. Fluorescence was monitored at 530 nm excitation and 590 nm emission wavelengths. Results were quantified using Infinite F200 Microplate Reader (Tecan Group, Ltd.). EC50 were calculated as the dose of drugs required to inhibit cell growth by 50%, with Origin 7.0 computer program.

PC3 (prostate) = test: alamarBlue viability assay, PC3; format: cell-based; conditions: 72 hours
Experimental: as §1, §2
as §3, with “They were then added in concentrations from 100 μM to 0.45 nM (each concentration in triplicate).” left out

human recombinant HDAC 8 = molecular target: T1, human recombinant HDAC 8 (Homo sapiens, UniProt Q9BY41); test: HDAC inhibition assay (Fluor de Lys), HDAC8; format: biochemical; conditions: inhibitor-protein incubation 0 hours, reaction 3 hours, 37° C.
T1 construct: purchased BPS Bioscience 50008
T1 sequence (Q9BY41 1-377): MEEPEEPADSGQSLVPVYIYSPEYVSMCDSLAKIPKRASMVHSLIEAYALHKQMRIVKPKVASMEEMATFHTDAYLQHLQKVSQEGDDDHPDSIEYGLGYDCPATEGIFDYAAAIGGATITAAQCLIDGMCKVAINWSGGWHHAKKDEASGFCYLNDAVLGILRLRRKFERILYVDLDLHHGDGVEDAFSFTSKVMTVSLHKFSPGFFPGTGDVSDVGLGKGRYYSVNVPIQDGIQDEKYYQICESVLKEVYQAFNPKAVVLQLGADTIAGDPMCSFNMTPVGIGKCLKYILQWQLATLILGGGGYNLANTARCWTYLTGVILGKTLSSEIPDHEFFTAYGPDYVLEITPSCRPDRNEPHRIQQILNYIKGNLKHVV
Experimental: (§4) All assays were carried out in the assay buffer: 50 mM Tris/Cl, pH 8.0, 137 mM NaCl, 2.7 mM KCl, 1 mM MgCl2).
(§5) Reactions were carried out in a 96-wells microplate (Corning 96 well Flat Bottom Non-binding surface (black) ref. 3651).
(§6) Potential inhibitors were added after five fold serial dilutions in DMSO. Final DMSO concentration in the assay microplate was kept at 2%.
(§7) Afterwards, human recombinant HDAC1, HDAC 2 or HDAC 8 were added up to […] respectively in assay buffer. When necessary, the mixture was incubated at room temperature prior the addition of substrate.
(§8) Total reaction volume of 50 μl. Human recombinant HDACs could be acquired from commercial sources (HDAC1: ref. #50001, BPS Bioscience™; HDAC 2: ref. #50002, BPS Bioscience™; HDAC 8: ref. #50008, BPS Bioscience™).
(§9) Reactions were stopped with 50 μl Developer (KI-105 Fluor de Lys™, BIOMOL®) with 2 μmol/L trichostatin A (TSA, final concentration 1 μmol/L). After 20 minutes at 37° C., fluorescence (excitation 360 nm, emission 460 nm) was measured using an Infinite F200 fluorimeter (Tecan). Background was determined in reactions using substrate in the absence of enzyme.
(§10) IC50 values are defined as the compound concentration at which the deacetylase activity is 50% inhibited. In these assays the following grading was used (I: IC50≦10 μM; II: 10 μM<IC50≦100 μM; III: 100 μM<IC50≦1 mM) The results obtained are summarized in Table 4.

K562 (lymphoma) = test: alamarBlue viability assay, K562; format: cell-based; conditions: Homo sapiens, 72 hours
Experimental: as §1, §2
as §3, with “They were then added in concentrations from 100 μM to 0.45 nM (each concentration in triplicate).” left out

MDA-MB-468 (breast) = test: alamarBlue viability assay, MDA-MB-468; format: cell-based; conditions: Homo sapiens, 72 hours
Experimental: as §1, §2, §3

[1] = system: human breast cancer cell line MCF-7; test: alamarBlue viability assay, MCF-7; format: cell-based; conditions: MCF7, 72 hours, dose required to inhibit cell growth by 50%
Experimental: (§11) The human colon cancer cell line HCT116 and the human breast cancer cell line MCF-7 were from the American Type Culture Collection (ATCC; CCL-247 and HTB-22, respectively).
(§12) The HCT116 cell line was maintained in DMEM GlutaMAX (Invitrogen) supplemented with 10% fetal calf serum and the MCF7 cell line was maintained in RPMI1640 GlutaMAX (Invitrogen) containing 1 mM sodium piruvate and 10% fetal calf serum.
as §2
as §3, with “They were then added in concentrations from 100 μM to 0.45 nM (each concentration in triplicate).” left out

[2] = system: human colon cancer cell line HCT116; test: alamarBlue viability assay, HCT116; format: cell-based; conditions: HCT-116, 72 hours, dose required to inhibit cell growth by 50%
Experimental: as §11, §12, §2
as §3, with “They were then added in concentrations from 100 μM to 0.45 nM (each concentration in triplicate).” left out

HDACs = test: HDAC inhibition assays, isoform not specified; format: biochemical, human; conditions: result in words
Experimental: as §4, §5, §6, §7, §8, §9
(§13) IC50 values are defined as the compound concentration at which the deacetylase activity is 50% inhibited. […]

human recombinant HDAC 2 = molecular target: T2, human recombinant HDAC 2 (Homo sapiens, UniProt Q92769); test: HDAC inhibition assay (Fluor de Lys), HDAC2; format: biochemical; conditions: inhibitor-protein incubation 2 hours, reaction 1 h 30 min, 37° C.
T2 construct: purchased BPS Bioscience 50002
Experimental: as §4, §5, §6, §7, §8, §9, §10

Hep3B (hepatocarcinoma) = test: alamarBlue viability assay, Hep3B; format: cell-based; conditions: Homo sapiens, 72 hours
Experimental: as §1, §2
as §3, with “They were then added in concentrations from 100 μM to 0.45 nM (each concentration in triplicate).” left out

human recombinant HDAC1 = molecular target: T3, human recombinant HDAC1 (Homo sapiens, UniProt Q13547); test: HDAC inhibition assay (Fluor de Lys), HDAC1; format: biochemical; conditions: inhibitor-protein incubation 0 hours, reaction 3 hours, 25° C.
T3 construct: purchased BPS Bioscience 50001
Experimental: as §4, §5, §6, §7, §8, §9, §13

HepG2 (hepatocarcinoma) = test: alamarBlue viability assay, HepG2; format: cell-based; conditions: Homo sapiens, 72 hours
Experimental: as §1, §2, §3

T98G (glioblastoma) = test: alamarBlue viability assay, T98G; format: cell-based; conditions: Homo sapiens, 72 hours
Experimental: as §1, §2, §3

NP-9 (pancreas) = test: alamarBlue viability assay, NP-9; format: cell-based; conditions: 72 hours
Experimental: The NP-9 cell line from pancreas, was provided by Dr. R. Alemany from Translational Research Laboratory (Institut Catala d'Oncologia). (cf., Cascallò, M. et al., “Ras-dependent Oncolysis with an Adenovirus VAI mutant”, Cancer Research, 2003, 63, 5544-5550). This cells was maintained in DMEM:F12 (Invitrogen) supplemented with 10% fetal calf serum (Invitrogen), L-glutamine […] (Invitrogen), pyruvate […] (Invitrogen).
as §2
as §3, with “EC50 were calculated as the dose of drugs required to inhibit cell growth by 50%, with Origin 7.0 computer program.” left out

A549 (lung) = test: alamarBlue viability assay, A549; format: cell-based; conditions: Homo sapiens, 72 hours
Experimental: as §1, §2, §3

SK-mel-98 (melanoma) = test: alamarBlue viability assay, SK-mel-98; format: cell-based; conditions: 72 hours
Experimental: as §1, §2, §3

U87 (glioblastoma) = test: alamarBlue viability assay, U87; format: cell-based; conditions: 72 hours
Experimental: as §1, §2, §3

T2 sequence (Q92769 whole entry): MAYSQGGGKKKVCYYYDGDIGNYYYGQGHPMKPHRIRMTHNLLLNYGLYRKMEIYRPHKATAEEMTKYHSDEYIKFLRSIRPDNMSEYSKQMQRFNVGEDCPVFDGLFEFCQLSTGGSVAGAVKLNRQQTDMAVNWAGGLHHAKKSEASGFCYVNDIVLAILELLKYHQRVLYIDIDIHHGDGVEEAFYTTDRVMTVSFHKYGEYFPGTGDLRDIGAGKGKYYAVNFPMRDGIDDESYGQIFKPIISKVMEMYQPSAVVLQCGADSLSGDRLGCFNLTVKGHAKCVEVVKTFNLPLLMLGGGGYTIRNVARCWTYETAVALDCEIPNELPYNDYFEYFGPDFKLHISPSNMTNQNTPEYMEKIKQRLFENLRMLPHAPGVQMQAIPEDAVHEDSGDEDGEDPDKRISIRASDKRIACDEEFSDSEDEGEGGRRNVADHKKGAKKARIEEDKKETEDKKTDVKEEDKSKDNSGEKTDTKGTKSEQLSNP
T3 sequence (Q13547 whole entry): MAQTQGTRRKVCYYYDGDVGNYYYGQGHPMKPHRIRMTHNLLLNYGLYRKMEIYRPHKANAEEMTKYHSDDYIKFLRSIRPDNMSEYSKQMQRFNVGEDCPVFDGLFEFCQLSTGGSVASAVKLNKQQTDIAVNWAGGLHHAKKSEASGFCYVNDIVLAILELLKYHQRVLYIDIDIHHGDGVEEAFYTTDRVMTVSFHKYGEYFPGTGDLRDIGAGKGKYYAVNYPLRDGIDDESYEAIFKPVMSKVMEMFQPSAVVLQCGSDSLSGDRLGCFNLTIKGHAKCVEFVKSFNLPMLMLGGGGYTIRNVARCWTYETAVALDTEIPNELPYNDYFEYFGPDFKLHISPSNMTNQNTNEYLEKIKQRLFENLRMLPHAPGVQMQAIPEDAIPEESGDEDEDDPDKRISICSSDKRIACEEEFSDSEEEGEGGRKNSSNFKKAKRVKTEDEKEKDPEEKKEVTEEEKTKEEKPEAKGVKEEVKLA

| SMILES | EC50 (MDA-MB-435P (breast)) | EC50 (PC3 (prostate)) | IC50 (human recombinant HDAC 8) | EC50 (K562 (lymphoma)) | EC50 (MDA-MB-468 (breast)) | EC50 [1] | EC50 [2] | inhibition of the target of these compounds (i.e. HDACs) (HDACs) | IC50 (human recombinant HDAC 2) | EC50 (Hep3B (hepatocarcinoma)) | IC50 (human recombinant HDAC1) | EC50 (HepG2 (hepatocarcinoma)) | EC50 (T98G (glioblastoma)) | EC50 (NP-9 (pancreas)) | EC50 (A549 (lung)) | EC50 (SK-mel-98 (melanoma)) | EC50 (U87 (glioblastoma)) |
| --- | --- | --- | --- | --- | --- | --- | --- | --- | --- | --- | --- | --- | --- | --- | --- | --- | --- |
| O=C(O)C(CCc1ccccc1)Cc1ccccc1 (centres unmarked) [Example 9, 2-Benzyl-4-phenylbutanoic acid] | 242 µM | 364 µM | 100 to 1000 µM | 472 µM | 364 µM | 1.06 mM | 636 µM | – | – | – | – | – | – | – | – | – | – |
| CNS(=O)(=O)c1ccc(CC(CCc2ccccc2)C(=O)O)cc1 (centres unmarked) [Example 12, 2-{4-[(methylamino)sulfonyl]benzyl}-4-phenylbutanoic acid] | – | – | 100 to 1000 µM | – | – | 5 mM | 5000 µM | clear inhibition | – | – | – | – | – | – | – | – | – |
| O=C(O)C(CCCc1ccccc1)CCc1ccc(OCc2ccccc2)cc1 (centres unmarked) [Example 55, 2-[2-(4-Benzyloxyphenyl)ethyl]-5-phenylpentanoic acid] | 16 µM | 102 µM | ≤ 10 µM | – | 43 µM | – | 23 µM | – | 10 to 100 µM | 418 µM | – | – | – | – | – | – | – |
| CNS(=O)(=O)c1cccc(CCCC(CCc2ccccc2)C(=O)OCOC(C)=O)c1 (centres unmarked) [Example 19, (Acetyloxy)methyl 5-(3-[(methylamino)sulfonyl]phenyl)-2-(2-phenylethyl)pentanoate] | 6.7 µM | – | – | – | 13 µM | – | 65 µM | – | – | – | – | – | – | – | – | – | – |
| O=C(O)C(CCCc1ccccc1)CCc1ccccc1 (centres unmarked) [Example 11, 5-Phenyl-2-(2-phenylethyl)pentanoic acid] | 253 µM | – | 10 to 100 µM | – | – | 0.268 mM | 177 µM | – | 100 to 1000 µM | – | 100 to 1000 µM | – | – | – | – | – | – |
| CCc1ccc(CCC(CCCc2ccc(S(=O)(=O)Nc3ccccc3)cc2)C(=O)O)cc1 (centres unmarked) [Example 46, 5-[4-(Anilinosulfonyl)phenyl]-2-[2-(4-ethylphenyl)ethyl]pentanoic acid] | 52 µM | 55.6 µM | ≤ 10 µM | – | 99.8 µM | – | 54 µM | – | 10 to 100 µM | 107 µM | – | 103 µM | 118 µM | 102 µM | 62.3 µM | 78.3 µM | 43 µM |
| CNS(=O)(=O)c1cccc(CCCC(CCc2ccccc2)C(=O)O)c1 (centres unmarked) [Example 41, 5-(3-[(Methylamino)sulfonyl]phenyl)-2-(2-phenylethyl)pentanoic acid] | – | – | 10 to 100 µM | – | – | – | 644 µM | – | 100 to 1000 µM | – | 100 to 1000 µM | – | – | – | – | – | – |
| Cc1ccc(NS(=O)(=O)c2cccc(CCCC(CCc3ccccc3)C(=O)O)c2)cc1 (centres unmarked) [Example 36] | 125 µM | 168 µM | 10 to 100 µM | 157 µM | 55.4 µM | – | 98 µM | – | 10 to 100 µM | 99.7 µM | – | 140 µM | 118 µM | 41 µM | 104 µM | 170 µM | 105 µM |
| COc1ccc(NS(=O)(=O)c2cccc(CCCC(CCc3ccccc3)C(=O)O)c2)cc1OC (centres unmarked) [Example 43, 5-(3-{[(3,4-dimethoxyphenyl)amino]sulfonyl}phenyl)-2-(2-phenylethyl)pentanoic acid] | 210 µM | 336 µM | 10 to 100 µM | 2.55 µM | 87 µM | – | 75 µM | – | 100 to 1000 µM | – | – | – | – | – | – | – | – |
